# Source: patent US8674115B2, “CRTH2 modulators” (Ironwood Pharmaceuticals, Inc., priority 2009, dated 2014)
# Columns and labels:
# CRTH2 [1] = target: T1, CRTH2 (Homo sapiens, UniProt Q9Y5Y4); test: Human whole blood CD11b antagonist assay (CD11b expression in eosinophils); type: cell-based; parameters: endogenous in cells; host or cells: eosinophils in human whole blood; settings: challenged with 10 nM 15R-Methyl-PGD2, read-out: CD11b Antag IC50(nM) [HuEos-HuWB-vs10nM15R]
# T1 sequence (Q9Y5Y4 1-395): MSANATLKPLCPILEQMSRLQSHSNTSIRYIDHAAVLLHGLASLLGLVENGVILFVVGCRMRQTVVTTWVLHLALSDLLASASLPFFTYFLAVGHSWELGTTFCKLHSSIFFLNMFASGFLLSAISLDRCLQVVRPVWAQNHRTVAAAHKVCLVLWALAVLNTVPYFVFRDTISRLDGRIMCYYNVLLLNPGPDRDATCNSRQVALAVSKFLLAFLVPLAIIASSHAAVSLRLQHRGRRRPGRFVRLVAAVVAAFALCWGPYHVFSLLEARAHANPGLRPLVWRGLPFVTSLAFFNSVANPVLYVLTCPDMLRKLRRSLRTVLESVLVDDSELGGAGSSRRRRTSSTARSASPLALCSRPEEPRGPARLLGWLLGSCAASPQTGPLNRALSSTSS
# Method: Human Whole Blood CD11B Antagonist Assay (Modified from Nicholson, et al. Pulmonary Pharmacology and Therapeutics: 20 (2007); 52-59).
# The potential CRTH2 antagonist activity of certain compounds was tested in human whole blood using an assay that tests the ability of the compounds to block the CD11b expression in eosinophils by 15-R-methyl-PGD2. A CRTH2 antagonist should block CD11b expression by subsequently added 15-Methyl-PGD2. Human whole blood (200 μL) was incubated at 37° C. for 10 minutes in the presence of various concentrations of test compounds before being challenged with the agonist 15R-Methyl-PGD2 (10 nM). Reactions were terminated by the addition of ice-cold PBS+0.5% BSA+2 mMEDTA (1 mL) and centrifugation (300×g for 5 minutes at 4° C.) Cells were then incubated at 4° C. for 10 min in the presence of human IgG. Cells were then incubated for 30-45 min with a mixture of PE-Cy5-labeled mouse anti-human CD16 (10 ul; BD Biosciences) and FITC-labeled mouse anti-human CD11b (10 μL; Beckman Coulter.) After rinsing (1 mL ice-cold PBS+0.5% BSA+2 mMEDTA), red blood cells were lysed by the addition of 1 mL ice-cold H2O to the cell pellet for 30 sec-1 min immediately followed by the addition of 3.5% NaCl (300 μL.) Cells were then rinsed (2×-1 ml ice cold PBS+0.5% BSA+2 mMEDTA) and fixed in PBS containing 1% formaldehyde. The distribution of fluorescence intensities was measured by flow cytometry. Eosinophils were gated out on the basis of their granularity (high side scatter) and absence of CD-16. CD11b was then measured on this eosinophil population on the basis of fluorescence due to FITC.
# CRTH2 [2] = target: T1, CRTH2; test: DPBS CD11b antagonist assay (CD11b expression in eosinophils); type: cell-based; settings: challenged with 10 nM 15R-Methyl-PGD2, read-out: CD11b Antag IC50(nM) [HuEos-DPBS-vs10nM15R]
# Method: DPBS CD11b Antagonist Assay.
# The potential CRTH2 antagonist activity of certain compounds was tested using a CD11b expression assay using essentially the method described by Monneret et al. (J Pharmacol Exp Ther 304:349-55, 2003). Briefly, polymorphonuclear cells (0.5 ml; 10^6/ml cells) in PBS containing 0.9 mM CaCl2 and 0.5 mM MgCl2) were preincubated with various concentrations of test compounds at room temperature for 10 minutes before they were challenged with the agonist 15R-Methyl-PGD2 (10 nM). The incubations were terminated by the addition of ice-cold FACSFlow (BD Biosciences; Cat# 342003) and centrifugation (400 g for 5 minutes at 4° C.). The cells were then incubated for 30 minutes at 4° C. with a mixture of PE-labeled mouse anti-human VLA-4 (5 μl; BD Biosciences) and FITC-labeled mouse anti-human CD11b (10 μl; Beckman Coulter). The cells were then incubated with Optilyse C (0.25 ml; Beckman Coulter) for 15 minutes, centrifuged, and then fixed in PBS (0.4 ml; calcium and magnesium free) containing 1% formaldehyde. The distribution of fluorescence intensities among 60,000 cells was measured by flow cytometry. Eosinophils were gated out on the basis of their granularity (high side scatter) and labeling with VLA-4 (PE fluorescence). CD11b was then measured in the eosinophil region on the basis of fluorescence due to FITC. All data were corrected for the value obtained for the corresponding isotope control antibody.
IC50 (CRTH2 [1]) [nM],IC50 (CRTH2 [2]) [nM],Structure (SMILES)
5 to 100,5 to 100,"Cc1cc(Cc2ccccc2S(=O)(=O)N2CCCC2)c(C)n1CC(=O)O [I-9, 2-(2,5-dimethyl-3-(2-(pyrrolidin-1-ylsulfonyl)benzyl)-1H-pyrrol-1-yl)acetic acid]"
5 to 100,< 5,"CC(=O)c1c(Cc2ccccc2S(=O)(=O)N2CCCC2)c(C)n(CC(=O)O)c1C [I-53, 2-(3-acetyl-2,5-dimethyl-4-(2-(pyrrolidin-1-ylsulfonyl)benzyl)-1H-pyrrol-1-yl)acetic acid]"
